From patent US20130041023A1, “Composition for Preventing or Treating Rotavirus Infection Comprising Licorice Extract” (priority 2010, published 2013)
Read-outs that look alike come from different tables or passages of the source.

Experiments:
[1] = Cytotoxicity (CC50) in TF-104 cells; format: cell-based; settings: rhesus monkey, TF-104 cells (fetal rhesus monkey kidney cell line)
Experimental: In order to the CPE (cytopathic effect) reduction effects and virucidal effects of the compounds separated from licorice on bovine rotavirus NCDV (G6P[1]) and porcine rotavirus KJ205 […][7]), the following in vitro experiment was performed using the fetal rhesus monkey kidney cell line TF-104. First, TF-104 cells were added to a 96-well microplate at a density of 4×10^4 cells/well and cultured with alpha-MEM medium (penicillin 100 units, […], 5% FBS). When the TF-104 cells formed a monolayer, the cells were washed twice with alpha-MEM containing only an antibiotic. Each of NCDV and KJ205 was diluted to an MOI of 0.01 and placed in EP tubes. Each of the licorice extract and the polyphenolic compounds, diluted with dimethylsulfoxide (DMSO), was placed in each of the tubes at varying concentrations and then allowed to react at 4° C. for 1 hour. After 1 hour, the reaction material was inoculated into the washed TF-104 cells in such a manner that one sample concentration was inoculated into 3 wells (hereinafter referred to as “sample-treated groups”). Meanwhile, a non-infected+non-administered control (cell group not infected with NCDV or KJ205 and not treated with the compound) and an infected+non-administered control (virus control; a cell group infected with NCDV or KJ205, but not treated with the compound) were allowed to react under the same conditions for 1 hour, and then inoculated into the TF-104 cells, which were then incubated at 37° C. for 1 hours. After 1 hour, the medium was completely removed from the plate, which was then washed once with PBS. Then, […] medium containing 1 mg/mL of trypsin and antibiotic were dispensed into each well of the plate and incubated at 37° C. for 5-6 days. In the case of the infected +non-administered control group, incubation was performed for 5-6 days until the cytopathic effect (CPE) of the virus clearly appeared. […] After 5-6 days of the incubation, in order to examine the viability of the cells, […] solution (Sigma, UK) was added to each well of the place and allowed to react at 37° C. for 2 hours. Then, the medium was removed, […] solution (1% glacial acetic acid, 49% DDW, 50% EtOH) was added to each well, and after 15 minutes, the absorbance at 540 nm was measured. The virucidal effects (inhibition %) of the inventive compounds separated from licorice compared to the non-infected+non-administered control group and the infected+non-administered control group were calculated using the following equation 1, and the results of the calculation are shown in Table 1 below.

[2] = test system: porcine rotavirus KJ205 (G5P[7]); test: CPE inhibition effect, porcine rotavirus KJ205 (TF-104 cells treated after virus inoculation); format: cell-based; settings: for EC50: TF-104 cells; for selectivity ratio: rhesus monkey, read-out: S.I. (selective index, CC50/EC50)
Experimental: In order to the CPE (cytopathic effect) reduction effects and virucidal effects of the compounds separated from licorice on bovine rotavirus NCDV (G6P[1]) and porcine rotavirus KJ205 […][7]), the following in vitro experiment was performed using the fetal rhesus monkey kidney cell line TF-104. Inhibition %=(O.D) value of sample-treated group-(O.D) value of infected+non-administered control/(O.D) value of non-infected+non-administered control-(O.D) value of infected+non-administered control×100 [Equation 1] In the above equation, the O.D value means the absorbance measured at 540 nm. Meanwhile, in order to examine the inhibitory effects of the compounds separated from licorice on the CPE of bovine rotavirus NCDV (G6P[1]) and porcine rotavirus KJ205 […][7]), […] were washed twice with alpha-MEM containing only an antibiotic, after which the viruses were inoculated into the TF-104 cells and incubated at 37° C. for 1 hour. After 1 hour, the inoculated virus liquids were completely removed, the virus-inoculated TF-104 cells were treated with varying concentrations of the licorice extract and the polyphenolic compounds. Further, the cytopathic effect inhibition (inhibition %) of the compounds separated from licorice were calculated using equation 1 above in the same manner as described above, and the results of the calculation are shown in Table 1 below.

[3] = test system: porcine rotavirus KJ205 (G5P[7]); test: Virucidal effect against porcine rotavirus KJ205 (sample pre-reacted with virus, neutral red readout in TF-104 cells); format: cell-based; settings: for EC50: TF-104 cells; for virucidal effect, result in words: bovine and/or porcine rotavirus as worded
Experimental: (§1) In order to the CPE (cytopathic effect) reduction effects and virucidal effects of the compounds separated from licorice on bovine rotavirus NCDV (G6P[1]) and porcine rotavirus KJ205 (G5P[7]), the following in vitro experiment was performed using the fetal rhesus monkey kidney cell line TF-104.
First, TF-104 cells were added to a 96-well microplate at a density of 4×10^4 cells/well and cultured with alpha-MEM medium (penicillin 100 units, […], 5% FBS). When the TF-104 cells formed a monolayer, the cells were washed twice with alpha-MEM containing only an antibiotic. Each of NCDV and KJ205 was diluted to an MOI of 0.01 and placed in EP tubes. Each of the licorice extract and the polyphenolic compounds, diluted with dimethylsulfoxide (DMSO), was placed in each of the tubes at varying concentrations and then allowed to react at 4° C. for 1 hour. After 1 hour, the reaction material was inoculated into the washed TF-104 cells in such a manner that one sample concentration was inoculated into 3 wells (hereinafter referred to as “sample-treated groups”). Meanwhile, a non-infected+non-administered control (cell group not infected with NCDV or KJ205 and not treated with the compound) and an infected+non-administered control (virus control; a cell group infected with NCDV or KJ205, but not treated with the compound) were allowed to react under the same conditions for 1 hour, and then inoculated into the TF-104 cells, which were then incubated at 37° C. for 1 hours. After 1 hour, the medium was completely removed from the plate, which was then washed once with PBS. Then, […] medium containing 1 mg/mL of trypsin and antibiotic were dispensed into each well of the plate and incubated at 37° C. for 5-6 days. In the case of the infected +non-administered control group, incubation was performed for 5-6 days until the cytopathic effect (CPE) of the virus clearly appeared. […] After 5-6 days of the incubation, in order to examine the viability of the cells, […] solution (Sigma, UK) was added to each well of the place and allowed to react at 37° C. for 2 hours. Then, the medium was removed, […] solution (1% glacial acetic acid, 49% DDW, 50% EtOH) was added to each well, and after 15 minutes, the absorbance at 540 nm was measured. The virucidal effects (inhibition %) of the inventive compounds separated from licorice compared to the non-infected+non-administered control group and the infected+non-administered control group were calculated using the following equation 1, and the results of the calculation are shown in Table 1 below.
Inhibition %=(O.D) value of sample-treated group−(O.D) value of infected+non-administered control/(O.D) value of non-infected+non-administered control−(O.D) value of infected+non-administered control×100 [Equation 1]
(§2) In the above equation, the O.D value means the absorbance measured at 540 nm.

[4] = test system: bovine rotavirus NCDV (G6P[1]); test: Virucidal effect against bovine rotavirus NCDV (sample pre-reacted with virus, neutral red readout in TF-104 cells); format: cell-based
Experimental: as §1
First, TF-104 cells were added to a 96-well microplate at a density of 4×10^4 cells/well and cultured with alpha-MEM medium (penicillin 100 units, […], 5% FBS). When the TF-104 cells formed a monolayer, the cells were washed twice with alpha-MEM containing only an antibiotic. Each of NCDV and KJ205 was diluted to an MOI of 0.01 and placed in EP tubes. […] Then, the medium was removed, […] solution (1% glacial acetic acid, 49% DDW, 50% EtOH) was added to each well, and after 15 minutes, the absorbance at 540 nm was measured. The virucidal effects (inhibition %) of the inventive compounds separated from licorice compared to the non-infected+non-administered control group and the infected+non-administered control group were calculated using the following equation 1, and the results of the calculation are shown in Table 1 below. […]
as §2

[5] = CPE inhibition effect section, KJ205 (G5P[7]), read-out: CC50
[6] = Virucidal effect, KJ205 (G5P[7])

| Compound | CC50 [1, 5] | EC50 [2] | selectivity ratio [2] | melting point | EC50 [3, 6] | virucidal effect, result in words [3] | CC50 ([1]; Virucidal effect section, NCDV (G6P[1]) columns, read-out: CC50 (50% concentration from cytotoxic concentration)) | EC50 ([4]; Rotavirus A, TF-104 cells, read-out: EC50 (50% concentration from inhibition concentration)) | selectivity ratio ([4]; rhesus monkey, read-out: S.I. (selective index, CC50/EC50)) | selectivity ratio ([3]; rhesus monkey, Virucidal effect, KJ205 (G5P[7]), read-out: S.I. (selective index, CC50/EC50)) |
| --- | --- | --- | --- | --- | --- | --- | --- | --- | --- | --- |
| O=C(/C=C/c1ccc(O)cc1)c1ccc(O)cc1O [Compound 1, isoliquiritigenin] | 138 µM | 35.3 µM | 3.9 | – | – | – | – | – | – | – |
| COc1cc(O)ccc1C(=O)/C=C/c1ccc(O)cc1 [Compound 2, 2-methoxyisoliquiritigenin] | 280 µM | 24 µM | 11.7 | – | – | – | – | – | – | – |
| COc1c(CC=C(C)C)c(O)cc2oc(-c3ccc(O)cc3O)cc12 [Compound 3, licocoumarone] | 59.6 µM | 26.1 µM | 2.3 | 183 to 185 °C | 26.1 µM | good inhibitory activities against bovine and porcine rotaviruses | – | – | – | – |
| COc1c(CC=C(C)C)c(O)cc2c1CC(c1ccc(O)cc1O)CO2 (stereo not drawn) [Compound 4, glyasperin C] | – | – | – | – | 18.7 µM | selective virucidal effects against porcine rotavirus | 39.1 µM | 26.2 µM | 1.5 | 2.1 |
